Measured values taken from patent publication US20110172422A1, “Methods of Making Pharmacokinetically Improved Compounds Comprising Functional Residues or Groups and Pharmaceutical Compositions Comprising Said Compounds” (SURFACE LOGIX, INC., priority 2005, published 2011).
≈ marks a conversion by molar mass, not a printed value. Read-outs that look alike come from different tables or passages of the source.

How the values were obtained:
Cytotoxicity LC50 = type: cell-based; conditions: Chronic; read-out: Cytotox LC50 Chronic
PAMPA permeability = type: in vitro ADME; conditions: for Papp: PAMPA
Cytotoxicity GC50 = type: cell-based
PDE5 [1] = target: T1, PDE5 (Homo sapiens, UniProt O76074); test: Phosphodiesterase inhibition PDE-5 human; type: biochemical
Method: (§1) Phosphodiesterase inhibition was determined by methods known to one of skill in the art.

Solubility = type: physicochemical
PDE5 [2] = target: T1, PDE5; test: Phosphodiesterase inhibition IC50 (Table 1); type: biochemical; conditions: PDE5 inhibitor scaffold Compound B
Method: as §1

PDE-3 = test: Phosphodiesterase inhibition PDE-3; type: biochemical
Method: as §1

Protein binding = type: in vitro ADME; conditions: human, human serum components
Method: In general, protein binding is assessed by measuring the capacity of molecules of the invention to bind to one or more human serum components or mimics thereof. In one embodiment, suitable functional residues may be identified by screening of surfaces comprising such residues for their ability to resist adsorption of serum components, including, but not limited to serum proteins, and preferably human serum proteins. Candidate residues can be screened directly by attaching them to a solid support and testing the support for protein resistance. Alternatively, candidate residues are incorporated into, or linked to molecules of pharmaceutical interest. Such compounds may be synthesized on a solid support, or bound to a solid support after synthesis. In a non-limiting example of a direct binding assay, immobilized candidate functional residues or molecules incorporating such residues are tested for their ability to bind serum components. The serum components can be labeled with a signaling moiety for detection, or a labeled secondary reagent that binds to such serum components can be used.

Caco-2 permeability = type: in vitro ADME; conditions: human; for Papp A→B: AtoB; for Papp B→A: BtoA
Excerpt: Several model systems are available, employing monolayers of various cell types, for evaluation of active transport of pharmaceutically active substances. For example, monolayers of Caco-2 intestinal epithelial cells can be used to evaluate active transport of substances between the intestine and the bloodstream. When plated on a surface which allows the flow of material from apical to basolateral and vice versa, such cells form a biological membrane which can be used to simulate physiological absorption and bio-availability. In another example, mouse brain capillary endothelial cell (MBEC) lines have been established to evaluate active transport in and out of the central nervous system. Another example of such cells is HT29 human colon carcinoma cells. Further, monolayers expressing particular transporter proteins can be established using transfected cells. For example, Sasaki et al (2002) J. Biol. Chem. 8:6497 used a double-transfected Madin-Darby canine kidney cell monolayer to study transport of organic anions.

PDE-1 = test: Phosphodiesterase inhibition PDE-1; type: biochemical
Method: as §1

Non-specific binding = type: in vitro ADME
PDE-6 = test: Phosphodiesterase inhibition PDE-6; type: biochemical
Method: as §1

RLM half-life = type: in vitro ADME; conditions: rat, liver microsomes, read-out: RLM T1/2
[3] = pH 2.7, aqueous buffer, pH 2.7, read-out: Solubility pH 2.7
[4] = pH 7.4, aqueous buffer, pH 7.4, read-out: Solubility pH 7.4

| Compound | Papp (PAMPA permeability; Hex, read-out: PAMPA Hex) [×10⁻⁶ cm/s] | solubility (Solubility; [3]) [µg/mL] | solubility (Solubility; [4]) [µg/mL] | IC50 (PDE-3) [nM] | fraction unbound (Protein binding) | Papp A→B (Caco-2 permeability) [×10⁻⁶ cm/s] | Papp B→A (Caco-2 permeability) [×10⁻⁶ cm/s] | Papp (PAMPA permeability; Lec, read-out: PAMPA Lec) [×10⁻⁶ cm/s] | IC50 (PDE-1) [nM] | Non-Spec Binding (Non-specific binding) [%] | IC50 (PDE-6) [nM] | CC50 (Cytotoxicity LC50) [nM] | Cytotox GC50 (Cytotoxicity GC50) [nM] | IC50 (PDE5 [1]) [nM] | IC50 (PDE5 [2]) [nM] | PAMPA Hex (PAMPA permeability; Hex) | Solubility pH 2.7 (Solubility; pH 2.7) [ug/mL] | Solubility pH 7.4 (Solubility; pH 7.4) [ug/mL] | half-life (RLM half-life) [h] |
| --- | --- | --- | --- | --- | --- | --- | --- | --- | --- | --- | --- | --- | --- | --- | --- | --- | --- | --- | --- |
| CCCc1nc(C)c2c(=O)[nH]c(-c3cc(S(=O)(=O)NC(C)C(=O)N(C)C)ccc3OCC)nn12 (stereo not shown) [Compound 17] | 0.26 | 70 (≈ 143 µM) | 78.4 (≈ 160 µM) | – | – | – | – | – | – | – | – | 100000 | 100000 | 0.66 | 0.66 | – | – | – | – |
| CCCc1nc(C)c2c(=O)[nH]c(-c3cc(S(=O)(=O)NC(C)C(=O)N(C)C)ccc3OCC)nn12 (stereo not shown) [Compound 18] | – | – | – | – | – | – | – | – | – | – | – | 100000 | 100000 | 0.36 | 0.36 | 0.18 10^−6 cm/s | 70.3 | 75.75 | – |
| CCCc1nc(C)c2c(=O)[nH]c(-c3cc(S(=O)(=O)N(CC)CC(=O)N(CC)CC)ccc3OCC)nn12 [Compound 10] | 67 | 77.9 (≈ 146 µM) | 78.5 (≈ 147 µM) | – | – | – | – | – | – | – | – | – | – | – | – | – | – | – | – |
| CCCc1nc(C)c2c(=O)[nH]c(-c3cc(S(=O)(=O)N(C)[C@@H](C)C(=O)N(C)C)ccc3OCC)nn12 [Compound 12] | 13.9 | 96 (≈ 190 µM) | 100 (≈ 198 µM) | – | 0.058 | 33.4 | 50.4 | – | – | 30.7 | – | – | 99300 | – | – | – | – | – | – |
| CCCc1nc(C)c2c(=O)[nH]c(-c3cc(S(=O)(=O)N(C)CC(=O)N4CCN(C)CC4)ccc3OCC)nn12 [Compound 7] | 0.18 | > 100 | > 100 | – | 0.155 | 4.35 | 35.6 | – | – | 2.6 | – | – | – | – | – | – | – | – | – |
| CCCc1nc(C)c2c(=O)[nH]c(-c3cc(S(=O)(=O)N(C)[C@@H](C)C(=O)NC)ccc3OCC)nn12 [Compound 13] | 0.42 | 69.4 (≈ 141 µM) | 74.6 (≈ 152 µM) | – | – | – | – | – | – | – | – | 100000 | 94000 | – | – | – | – | – | – |
| CCCc1nc(C)c2c(=O)[nH]c(-c3cc(S(=O)(=O)NC)ccc3OCC)nn12 [Compound 20] | 0.37 | > 100 | > 100 | 1010 | 0.0397 | 24.3 | 53 | 0.00384 | 28 | 16.23 | 4.18 | 100000 | 100000 | 0.243 | 0.24 | – | – | – | 1 |
| CCCc1nc(C)c2c(=O)[nH]c(-c3cc(S(=O)(=O)N(C)C(C)(C)C(=O)NC)ccc3OCC)nn12 [Compound 15] | 0.25 | – | – | – | – | 6.8 | 34.9 | – | – | – | – | 100000 | 95000 | – | – | – | – | – | – |
| CCCc1nc(C)c2c(=O)[nH]c(-c3cc(S(=O)(=O)N4CCCC4C(=O)N(C)C)ccc3OCC)nn12 (stereo not shown) [Compound 5] | 13.2 | 100 (≈ 194 µM) | 93 (≈ 180 µM) | – | – | 19.4 | 60.2 | – | – | – | – | – | – | – | – | – | – | – | – |
| CCCc1nc(C)c2c(=O)[nH]c(-c3cc(S(=O)(=O)NC(C)(C)C(=O)N(C)C)ccc3OCC)nn12 [Compound 19] | 0.17 | > 100 | 7.1 (≈ 14.1 µM) | – | – | 2.43 | 33 | – | – | – | – | 100000 | 100000 | – | – | – | – | – | – |
| CCCc1nc(C)c2c(=O)[nH]c(-c3cc(S(=O)(=O)N(C)C(C)(C)C(=O)N(C)C)ccc3OCC)nn12 [Compound 3] | 9.11 | > 100 | > 100 | 412 | 0.076 | 28.9 | 58.5 | – | 10 | 14.3 | 1.7 | – | 100000 | – | – | – | – | – | – |
| CCCc1nc(C)c2c(=O)[nH]c(-c3cc(S(=O)(=O)N(C)CC(=O)N4CCOCC4)ccc3OCC)nn12 [Compound 6] | 0.78 | > 100 | > 100 | – | 0.084 | 11.2 | 55.1 | – | – | 7.3 | – | – | – | – | – | – | – | – | – |
| CCCc1nc(C)c2c(=O)[nH]c(-c3cc(S(=O)(=O)N(C)[C@H](C)C(=O)N(C)C)ccc3OCC)nn12 [Compound 2] | 18.2 | > 100 | > 100 | – | 0.032 | 33.3 | 61.3 | – | – | 20.7 | – | – | 94600 | – | – | – | – | – | – |
| CCCc1nc(C)c2c(=O)[nH]c(-c3cc(S(=O)(=O)N(C)[C@H](C)C(=O)NC)ccc3OCC)nn12 [Compound 14] | 0.47 | 62.6 (≈ 128 µM) | 64 (≈ 130 µM) | – | – | – | – | – | – | – | – | 100000 | 88000 | – | – | – | – | – | – |
| CCCc1nc(C)c2c(=O)[nH]c(-c3cc(S(=O)(=O)N(C)C4(C(=O)N(C)C)CC4)ccc3OCC)nn12 [Compound 16] | 3.41 | 74.7 (≈ 145 µM) | 82.5 (≈ 160 µM) | – | – | – | – | – | – | – | – | 100000 | 100000 | – | – | – | – | – | – |

Further lines, with some results ahead:

| Papp (PAMPA permeability; Hex, read-out: PAMPA Hex) [×10⁻⁶ cm/s] | solubility (Solubility; [3]) [µg/mL] | solubility (Solubility; [4]) [µg/mL] | IC50 (PDE-3) [nM] | fraction unbound (Protein binding) | Papp A→B (Caco-2 permeability) [×10⁻⁶ cm/s] | Papp B→A (Caco-2 permeability) [×10⁻⁶ cm/s] | Papp (PAMPA permeability; Lec, read-out: PAMPA Lec) [×10⁻⁶ cm/s] | IC50 (PDE-1) [nM] | Non-Spec Binding (Non-specific binding) [%] | IC50 (PDE-6) [nM] | Compound | CC50 (Cytotoxicity LC50) [nM] | Cytotox GC50 (Cytotoxicity GC50) [nM] | IC50 (PDE5 [1]) [nM] | IC50 (PDE5 [2]) [nM] | PAMPA Hex (PAMPA permeability; Hex) | Solubility pH 2.7 (Solubility; pH 2.7) [ug/mL] | Solubility pH 7.4 (Solubility; pH 7.4) [ug/mL] | half-life (RLM half-life) [h] |
| --- | --- | --- | --- | --- | --- | --- | --- | --- | --- | --- | --- | --- | --- | --- | --- | --- | --- | --- | --- |
| 5.49 | > 100 | 96.1 (≈ 196 µM) | 986 | 0.086 | 17.5 | 48.9 | 0.128 | 25 | 11.07 | 3.5 | CCCc1nc(C)c2c(=O)[nH]c(-c3cc(S(=O)(=O)N(C)CC(=O)N(C)C)ccc3OCC)nn12 [Compound 1] | – | 76700 | – | – | – | – | – | – |
| 0.03 | > 100 | > 100 | – | 0.246 | 2.33 | 11.3 | – | – | 9.8 | – | CCCc1nc(C)c2c(=O)[nH]c(-c3cc(S(=O)(=O)N(C)CC(=O)N(C)CCN(C)C)ccc3OCC)nn12 [Compound 9] | – | – | – | – | – | – | – | – |
| 1.45 | 66.7 (≈ 125 µM) | 70.9 (≈ 133 µM) | – | 0.042 | 11.4 | 63.3 | – | – | 0 | – | CCCc1nc(C)c2c(=O)[nH]c(-c3cc(S(=O)(=O)N(C)CC(=O)N(C)CCOC)ccc3OCC)nn12 [Compound 11] | – | – | 0.15 | 0.15 | – | – | – | – |
| 0.47 | 112 (≈ 199 µM) | 109 (≈ 194 µM) | – | 0.18 | 2.97 | 25.9 | 0.056 | – | 7 | – | CCCc1nc(C)c2c(=O)[nH]c(-c3cc(S(=O)(=O)N(C)CC(=O)N(C)CC(=O)N(C)C)ccc3OCC)nn12 [Compound 4] | – | – | – | – | – | – | – | – |
| 0.24 | > 100 | > 100 | – | – | 5.15 | 31.4 | – | – | – | – | CCCc1nc(C)c2c(=O)[nH]c(-c3cc(S(=O)(=O)N(C)CC(=O)NC)ccc3OCC)nn12 [Compound 21] | – | – | – | – | – | – | – | – |
| 21.8 | > 100 | > 100 | – | 0.024 | 42 | 77.4 | – | – | 19 | – | CCCc1nc(C)c2c(=O)[nH]c(-c3cc(S(=O)(=O)N(C)CC(=O)N(CC)CC)ccc3OCC)nn12 [Compound 8] | – | – | – | – | – | – | – | – |
